Data: patent US20190298694A1, “Use Of Carbamate Compound For Preventing Or Treating Fibromyalgia Or Functional Syndrome Associated With Fibromyalgia” (SK BIOPHARMACEUTICALS CO., LTD., priority 2016, published 2019)
Marks after values point to notes of the source that are not given here.

System: mechanical allodynia induced by injection of acidic saline into gastrocnemius muscle
Experiment: Pain suppression in animal model of fibromyalgia: mechanical allodynia induced by repeated intramuscular acidic saline, paw withdrawal threshold by von Frey filaments (up-down method)
Type: in vivo, rats (Sprague-Dawley)
Conditions: for Area under the curve of the paw withdrawal threshold curve over time, compared with the vehicle group: ip
Description: Musculoskeletal pain is a major feature of fibromyalgia. A model that is linked to musculoskeletal pain in humans has been developed by Sluka K A, which model is characterized by mechanical sensitization induced by repeated intramuscular injections of acidic saline.
This experiment evaluated the effect of the test compound on persistent mechanical allodynia, which may well represent muscle pain or tenderness observed in patients with fibromyalgia. Repeated injections of acidic saline into the gastrocnemius muscle of rats lead to mechanical allodynia due to central sensitization (Sluka K A et. al., Unilateral intramuscular injections of acidic saline produce a bilateral, long-lasting hyperalgesia, Muscle Nerve. 2001).
Male rats (Sprague-Dawley, 150-200 g, 6 weeks old, Orient Bio Co., Ltd.) were purchased and subjected to acclimatization for more than 1 week in an animal chamber. The experimental animals were maintained under conditions of light-and-darkness cycle of 12 hours, a temperature of 22 to 25° C., a relative humidity of 40 to 60%, and free access to water and food.
Mechanical allodynia was assessed by measuring the paw withdrawal threshold of the rat right hind paw using Dixon's “up-down method” (Chaplan et. al., Quantitative assessment of tactile allodynia in the rat paw. J Neurosci Methods, 1994; Dixon W J, Efficient analysis of experimental observations, Annu Rev Pharmacol Toxicol. 1980). First, the rats were placed in an acrylic box (13×25×13 cm3) located on a wire mesh installed at a height of about 35 cm from the floor and stabilized for more than 20 minutes. […] von Frey filaments with various bending forces (0.2, 0.4, 0.6, 1.0, 2.0, 4.0, 6.0, 8.0, 15.0 g) were used. Starting with a filament of 2.0 g, bending force was applied perpendicular to the sole surface. In the case of no withdrawal (avoidance response), the next higher bending force filament was applied, or, in the case of withdrawal (avoidance response), the next lower bending force filament was applied. In order to obtain at least six (6) response results, the application of filaments was proceeded four (4) more times after showing the change in withdrawal.
The baseline withdrawal (avoidance response) threshold for mechanical stimulation on the right hind paw of rats was measured. 100 μl of preservative-free acidic saline (0.9% sodium chloride, pH 4.0) was intramuscularly injected into the right gastrocnemius muscle of the rats. After 5 days, the acidic saline was intramuscularly injected again into the same region by the same method. At 7 or 8 days after the second administration of acidic saline, induction of mechanical allodynia was confirmed by measuring withdrawal (avoidance response) thresholds to mechanical stimulation on the right hind paw, and rats with a mechanical withdrawal (avoidance response) threshold of less than 4.5 g were used for the evaluation of the test drug (Sluka K A et. al., Unilateral intramuscular injections of acidic saline produce a bilateral, long-lasting hyperalgesia, Muscle Nerve. 2001).
The test compound was prepared as a solution using 30% PEG 400 and 70% distilled water on a volume basis. Each solution was administered intraperitoneally to the rats at a volume of 3 ml per kg of rat. Withdrawal (avoidance response) thresholds to mechanical stimulation were measured at 30 minutes, 1 hour, 2 hours and 4 hours after drug administration.
[% MPE=(threshold over time after drug treatment−threshold at 0 hour)/(threshold of normal group−threshold at 0 hour)×100]
The vehicle or the test compound was administered intraperitoneally at doses of 5, 10 and 20 mg/kg, and withdrawal thresholds to mechanical stimulation were measured at 30 minutes, 1 hour, 2 hours and 4 hours.

NC(=O)O[C@@H](Cn1ncnn1)c1ccccc1Cl [Test compound]
Withdrawal threshold of the right hind paw to mechanical stimulation (mean) (5 mg/kg ip group, 0 h (pre-dose, after acidic saline)): 2.97 g | Withdrawal threshold of the right hind paw to mechanical stimulation (mean) (5 mg/kg ip group, baseline, prior to first injection of acidic saline (pre-dose)): 13.69 g | Effect (%) (% MPE, percent of maximum possible effect) (5 mg/kg ip, 30 min): 10.8% | Withdrawal threshold of the right hind paw to mechanical stimulation (mean) (5 mg/kg ip, 30 min after administration): 4.02 g | Effect (%) (% MPE, percent of maximum possible effect) (5 mg/kg ip, 1 h): 35.6% | Withdrawal threshold of the right hind paw to mechanical stimulation (mean) (5 mg/kg ip, 1 h after administration): 6.41^d g | Effect (%) (% MPE, percent of maximum possible effect) (5 mg/kg ip, 2 h): 38.3% | Withdrawal threshold of the right hind paw to mechanical stimulation (mean) (5 mg/kg ip, 2 h after administration): 6.67^e g | Effect (%) (% MPE, percent of maximum possible effect) (5 mg/kg ip, 4 h): 10.7% | Withdrawal threshold of the right hind paw to mechanical stimulation (mean) (5 mg/kg ip, 4 h after administration): 4.01 g | Withdrawal threshold of the right hind paw to mechanical stimulation (mean) (10 mg/kg ip group, 0 h (pre-dose, after acidic saline)): 3.20 g | Withdrawal threshold of the right hind paw to mechanical stimulation (mean) (10 mg/kg ip group, baseline, prior to first injection of acidic saline (pre-dose)): 14.29 g | Effect (%) (% MPE, percent of maximum possible effect) (10 mg/kg ip, 30 min): 11.4% | Withdrawal threshold of the right hind paw to mechanical stimulation (mean) (10 mg/kg ip, 30 min after administration): 4.27 g | Effect (%) (% MPE, percent of maximum possible effect) (10 mg/kg ip, 1 h): 47.5% | Withdrawal threshold of the right hind paw to mechanical stimulation (mean) (10 mg/kg ip, 1 h after administration): 7.68^e g | Effect (%) (% MPE, percent of maximum possible effect) (10 mg/kg ip, 2 h): 43.5% | Withdrawal threshold of the right hind paw to mechanical stimulation (mean) (10 mg/kg ip, 2 h after administration): 7.30^e g | Effect (%) (% MPE, percent of maximum possible effect) (10 mg/kg ip, 4 h): 11.3% | Withdrawal threshold of the right hind paw to mechanical stimulation (mean) (10 mg/kg ip, 4 h after administration): 4.26 g | Area under the curve of the paw withdrawal threshold curve over time, compared with the vehicle group (10 mg/kg): statistically significant effects | Withdrawal threshold of the right hind paw to mechanical stimulation (mean) (20 mg/kg ip group, 0 h (pre-dose, after acidic saline)): 2.95 g | Withdrawal threshold of the right hind paw to mechanical stimulation (mean) (20 mg/kg ip group, baseline, prior to first injection of acidic saline (pre-dose)): 13.83 g | Effect (%) (% MPE, percent of maximum possible effect) (20 mg/kg ip, 30 min): 44.6% | Withdrawal threshold of the right hind paw to mechanical stimulation (mean) (20 mg/kg ip, 30 min after administration): 7.28^d g | Effect (%) (% MPE, percent of maximum possible effect) (20 mg/kg ip, 1 h): 73.2% | Withdrawal threshold of the right hind paw to mechanical stimulation (mean) (20 mg/kg ip, 1 h after administration): 10.04^e g | Effect (%) (% MPE, percent of maximum possible effect) (20 mg/kg ip, 2 h): 82.2% | Withdrawal threshold of the right hind paw to mechanical stimulation (mean) (20 mg/kg ip, 2 h after administration): 10.92^e g | Effect (%) (% MPE, percent of maximum possible effect) (20 mg/kg ip, 4 h): 16.2% | Withdrawal threshold of the right hind paw to mechanical stimulation (mean) (20 mg/kg ip, 4 h after administration): 4.52 g | Area under the curve of the paw withdrawal threshold curve over time, compared with the vehicle group (20 mg/kg): statistically significant effects | Area under the curve of the paw withdrawal threshold curve over time (5, 10 and 20 mg/kg ip, dose dependence): dose-dependent effect | Muscle mechanical hyperalgesia in the chronic myalgia model (dose-dependent manner): significantly reduces | Mechanical allodynia induced by repeated injections of acidic saline (intraperitoneally at doses of 5, 10 and 20 mg/kg): significantly inhibited | Effect in the fibromyalgia disease model (overall conclusion): significant effect
